Test results taken from US9266908B2, “Inhibitors of arginase and their therapeutic applications” (MARS, INCORPORATED, priority 2011, dated 2016).

What was measured:
human-Arginase-1 = biological target: T1, human-Arginase-1 (Homo sapiens, UniProt P05089); assay: Urea production in CHOK cells stably transfected with human-Arginase-1; type: cell-based; conditions: IC50 class, 5 mM arginine, 24 hours, read-out: CHOK Cell
T1 construct: expressed in transfected cells; host or cells: CHOK cells
T1 sequence (P05089 1-322): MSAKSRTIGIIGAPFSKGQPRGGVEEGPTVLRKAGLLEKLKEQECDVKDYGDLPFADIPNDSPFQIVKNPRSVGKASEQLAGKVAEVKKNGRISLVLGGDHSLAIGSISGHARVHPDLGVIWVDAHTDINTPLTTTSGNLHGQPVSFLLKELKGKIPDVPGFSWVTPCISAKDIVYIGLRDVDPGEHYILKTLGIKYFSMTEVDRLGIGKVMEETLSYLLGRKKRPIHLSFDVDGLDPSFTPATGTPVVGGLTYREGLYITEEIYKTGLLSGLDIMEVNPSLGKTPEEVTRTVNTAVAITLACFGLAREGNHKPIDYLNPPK
Experimental: Table 3 also provides CHOK cell based IC50 values for illustrative arginase inhibitors. IC50 values were determined by measuring the production of urea in CHOK cells stably transfected with human-Arginase-1.
Briefly, CHOK cells were stably transfected with human-arginase-1. To determiner the IC50 values for compounds in accordance with the present invention, parental CHOK cells and arginase-1 stably transfected cells were plated in a 96 well plate. Cells were plated using 200 μl of complete growth medium and incubated overnight at 37° C.
Media from each of the wells containing cells was first removed and growth media supplemented with arginine at a concentration of 5 mM was added to each well. The test compounds were dissolved in PBS buffer to the desired concentration and added to appropriate wells. The plate was then incubated at 37° C. for 24 hours. After 24 hours the plates were spun down at 3000 RPM for 5 min and 50 μl of the media were transferred to a new plate.
An aqueous solution of o-phthaldehyde, Brij, sulfuric acid, primaquine diphosphate and boric acid was added to each well and the plate was incubated for 10-15 minutes. The urea concentration in each well was determined by measuring the optical density at 520-530 nanometers using a standard curve. The IC50 values were calculated by measuring urea production at various concentrations of the inventive arginase inhibitors after subtracting the value related to the concentration of urea in control wells.

arginase II (ARG II) = biological target: T2, arginase II (ARG II) (Homo sapiens, UniProt P78540); assay: Inhibition of arginase II, spectrophotometric urea assay at 530 nm
T2 sequence (P78540 23-354): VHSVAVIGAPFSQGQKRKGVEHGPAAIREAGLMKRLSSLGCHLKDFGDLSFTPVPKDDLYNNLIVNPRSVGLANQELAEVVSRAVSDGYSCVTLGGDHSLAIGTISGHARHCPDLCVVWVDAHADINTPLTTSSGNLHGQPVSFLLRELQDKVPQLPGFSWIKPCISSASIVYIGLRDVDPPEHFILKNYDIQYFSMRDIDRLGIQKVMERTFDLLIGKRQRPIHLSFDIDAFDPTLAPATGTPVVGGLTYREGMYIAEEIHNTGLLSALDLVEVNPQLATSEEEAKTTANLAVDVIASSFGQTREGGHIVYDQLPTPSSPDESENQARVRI
Experimental: (§1) Inhibition of arginase I (ARG I) and arginase II (ARG II) by the inventive compounds is followed spectrophotometrically at 530 nm. […] Solutions of arginase I and II are prepared in 100 mM sodium phosphate buffer, pH 7.4 containing 1 mg/ml of OVA to give an arginase stock solution at a final concentration of 100 ng/ml.
(§2) To each well of a 96-well microtiter plate is add 40 μl of enzyme, 10 μl of an inventive compound and 10 μl of enzyme substrate (L-arginine+ manganese sulfate). For wells that are used as positive controls, only the enzyme and its substrate are added, while wells used as negative controls contain only manganese sulfate.
(§3) After incubating the microtiter plate at 37° C. for 60 minutes, 150 μl of a urea reagent obtained by combining equal proportions (1:1) of reagents A and B is added to each well of the microtiter plate to stop the reaction. The urea reagent is made just before use by combining Reagent A (10 mM o-phthaldialdehyde, and 0.4% polyoxyethylene (23) lauryl ether (w/v) in 1.8 M sulfuric acid) with Reagent B (1.3 mM primaquine diphosphate, 0.4% polyoxyethylene (23) lauryl ether (w/v), 130 mM boric acid in 3.6 M sulfuric acid). After quenching the reaction mixture, the microtiter plate is allowed to stand for an additional 10 minutes at room temperature to allow color development. […] The normalized OD is then used to generate a dose-response curve by plotting the normalized OD values against log [concentration] and using regression analysis to compute the IC50 values.

human arginase I (ARG I) = biological target: T3, human arginase I (ARG I) (Homo sapiens, UniProt P05089); assay: Inhibition of arginase I, spectrophotometric urea assay at 530 nm
T3 sequence (P05089 1-322): T1 sequence (P05089 1-322)
Experimental: as §1, §2, §3

SMILES	IC50 (human-Arginase-1) [nM]	IC50 (arginase II (ARG II)) [nM]	IC50 (human arginase I (ARG I)) [nM]
Cc1ccc(F)c(-c2ccc(CN[C@H]3C[C@@H](C(N)(CCCCB(O)O)C(=O)O)C3)cc2F)c1 (mixture of isomers) [Example 52, (S)-2-amino-6-borono-2-((1s,3R)-3-((2,2′-difluoro-5′-methylbiphenyl-4-yl)methylamino)cyclobutyl)hexanoic acid]	1000 to 25000	0.1 to 25	0.1 to 25
NC(CCCCB(O)O)(C(=O)O)[C@H]1C[C@@H](NCc2ccc(-c3ccc(F)cc3)c(F)c2)C1 (mixture of isomers) [Example 53, (S)-2-amino-6-borono-2-((1s,3R)-3-((2,4′-difluorobiphenyl-4-yl)methylamino)cyclobutyl)hexanoic acid]	26000 to 100000	26 to 100	0.1 to 25
NC(CCCCB(O)O)(C(=O)O)[C@H]1C[C@@H](NCc2ccc(-c3ccccc3F)c(F)c2)C1 (mixture of isomers) [Example 54, (S)-2-amino-6-borono-2-((1s,3R)-3-((2,2′-difluorobiphenyl-4-yl)methylamino)cyclobutyl)hexanoic acid]	26000 to 100000	26 to 100	26 to 100
NC(CCCCB(O)O)(C(=O)O)[C@H]1C[C@@H](NCc2ccc(-c3ccc(F)cc3F)c(F)c2)C1 (mixture of isomers) [Example 55, (S)-2-amino-6-borono-2-((1s,3R)-3-((2,2′,4′-trifluorobiphenyl-4-yl)methylamino)cyclobutyl)hexanoic acid]	26000 to 100000	26 to 100	26 to 100
NC(CCCCB(O)O)(C(=O)O)[C@H]1C[C@@H](NCc2ccc(Cc3ccccc3)cc2)C1 (mixture of isomers) [Example 57, (S)-2-amino-2-((1s,3R)-3-(4-benzylbenzylamino)cyclobutyl)-6-boronohexanoic acid]	26000 to 100000	26 to 100	26 to 100
NC(CCCCB(O)O)(C(=O)O)[C@H]1C[C@@H](NCc2c(F)cc(-c3ccc(Cl)cc3)cc2F)C1 (mixture of isomers) [Example 58, (S)-2-amino-6-borono-2-((1s,3R)-3-((4′-chloro-3,5-difluorobiphenyl-4-yl)methylamino)cyclobutyl)hexanoic acid]	1000 to 25000	26 to 100	26 to 100
NC(CCCCB(O)O)(C(=O)O)[C@H]1C[C@@H](NCC2CCN(c3ccc(C(F)(F)F)cc3)CC2)C1 (mixture of isomers) [Example 60, (S)-2-amino-6-borono-2-((1s,3R)-3-((1-(4-(trifluoromethyl)phenyl)piperidin-4-yl)methylamino)cyclobutyl)hexanoic acid]	26000 to 100000	26 to 100	0.1 to 25
NC(CCCCB(O)O)(C(=O)O)[C@H]1CC[C@H](NCc2ccc(-c3ccccc3)cc2)C1 (stereo in doubt) [Example 43]	26000 to 100000	26 to 100	26 to 100
NC(CCCCB(O)O)(C(=O)O)[C@H]1C[C@@H](NC2Cc3ccccc3C2)C1 (stereo partly drawn) [Example 5, (S)-2-amino-6-borono-2-((1s,3R)-3-(2,3-dihydro-1H-inden-2-ylamino)cyclobutyl)hexanoic acid]	1000 to 25000	26 to 100	0.1 to 25
CC(C)(C)c1ccc(CN[C@H]2C[C@@H](C(N)(CCCCB(O)O)C(=O)O)C2)cc1 (stereo partly drawn) [Example 6, (S)-2-amino-6-borono-2-((1s,3R)-3-(4-tert-butylbenzylamino)cyclobutyl)hexanoic acid]	26000 to 100000	26 to 100	26 to 100
NC(CCCCB(O)O)(C(=O)O)[C@H]1C[C@@H](NCc2cccc(-c3ccc(C(F)(F)F)cc3)c2)C1 (stereo partly drawn) [Example 8, (S)-2-amino-6-borono-2-((1s,3R)-3-((4′-(trifluoromethyl)biphenyl-3-yl)methylamino)cyclobutyl)hexanoic acid]	1000 to 25000	0.1 to 25	0.1 to 25
NC(CCCCB(O)O)(C(=O)O)[C@H]1C[C@@H](NCc2cccc(-c3ccc(Cl)cc3)c2)C1 (stereo partly drawn) [Example 9, (S)-2-amino-6-borono-2-((1s,3R)-3-((4′-chlorobiphenyl-3-yl)methylamino)cyclobutyl)hexanoic acid]	26000 to 100000	0.1 to 25	0.1 to 25
